Measurements reported in PMC7766225, “Structure-Based Discovery and Bioactivity Evaluation of Novel Aurora-A Kinase Inhibitors as Anticancer Agents via Docking-Based Comparative Intermolecular Contacts Analysis (dbCICA)” (Molecules, 2020).
Where “and” joins values, the source holds several entries; their conditions need not be identical. Equal values may be shown once. Read-outs that look alike come from different tables or passages of the source.

Columns and labels:
Aurora-A kinase [1] = molecular target: T1, Aurora-A kinase (Homo sapiens, UniProt O14965); conditions: Table S1, ChEMBL, cited from earlier work
T1 construct: purchased Invitrogen (Carlsbad, CA, USA)
T1 sequence (O14965 1-403): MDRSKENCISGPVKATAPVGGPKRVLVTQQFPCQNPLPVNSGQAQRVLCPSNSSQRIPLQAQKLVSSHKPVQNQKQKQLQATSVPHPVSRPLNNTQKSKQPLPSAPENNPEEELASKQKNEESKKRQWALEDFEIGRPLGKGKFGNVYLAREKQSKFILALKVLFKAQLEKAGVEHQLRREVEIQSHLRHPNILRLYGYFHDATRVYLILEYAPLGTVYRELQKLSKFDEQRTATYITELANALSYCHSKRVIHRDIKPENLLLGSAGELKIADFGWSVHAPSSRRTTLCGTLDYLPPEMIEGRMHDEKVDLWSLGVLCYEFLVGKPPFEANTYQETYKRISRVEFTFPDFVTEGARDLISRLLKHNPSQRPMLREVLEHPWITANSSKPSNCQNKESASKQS

PANC1 cells = experiment: MTT cytotoxicity/anti-proliferation assay, PANC1; assay type: cell-based, human; conditions: Homo sapiens; for IC50: PANC-1, 72 h, Panc1, 72 h; for inhibition at 25 µM / inhibition at 50 µM: PANC-1, 72 h; for inhibition at 25 µM: Panc1, 25 µM; for inhibition at 50 µM: Panc1, 50 µM
Procedure: (§1) The human cell-lines triple negative breast adenocarcinoma MDA-MB-231, Pancreas adenocarcinoma PANC1, ductal breast carcinoma T-47D and fibroblasts were preserved and expanded in DMEM medium, while the prostate adenocarcinoma PC-3 cells were cultured in RPMI-1640 growth medium. All growth media were supplemented with 10% heat-inactivated fetal bovine serum (FBS). Cells were maintained under standard culture conditions at 37 °C, 5% CO2 in a humidified incubator. At 80% confluency, cells were washed with 5 mL phosphate buffer saline (1X PBS), then incubated for 4 min with 2–3 mL Trypsin-EDTA 0.25% in order to obtain suspended cells and collect them in a known volume of fresh media for cell count. Cells were counted using conventional hemocytometer and trypan blue dye method.
(§2) The five potent hits that have shown anti-Aurora-A Kinase inhibition percentages above 51% at 10 μM upon conducting the kinase enzyme Inhibition assay (Table 5) were further validated using MTT cytotoxicity Assay. This assay includes 3-(4,5-Dimethylthiazol-2-yl)-2,5-diphenyl tetrazolium bromide (MTT) dye, which is a yellowish tetrazole reduced by viable cells into formazan purple color, which detects the normal mitochondrial role in viable cells. In 96-well coated flat bottom microplates, 100 μL cell suspension of PANC1 or T-47D cells were seeded at a density of 7000 cell/well, and 6000 cell/well for MDA-MB-231, PC-3, or fibroblasts, and incubated under the same conditions at 37 °C. After 24 h, each well was treated with the intended drug concentration diluted in 200 μL fresh media after removal of the old 100-μL media. After 72 h incubation, drug-containing media was aspirated and on each well 100 μL phenol-red free media and 15-μL MTT solution (5 mg/mL (wt/vol) PBS). After 3 h of dark incubation at 37 °C, MTT and media were carefully withdrawn from each well, and 200 μL/well DMSO were added. Colorimetric absorbance (OD) was measured at 570 nm wavelength using 96-well plate reader (Tecan-Sunrise, Männedorf, Switzerland).
(§3) The five compounds were prepared in a stock concentrate of 10 mM using cell culture grade DMSO to be utilized in MTT assay. The cytotoxicity of each compound was initially screened on cancer cell-lines at two concentrations: 50 μM and 25 μM in duplicates. […] The safety index for the compounds with specified IC50 values was evaluated via determining their IC50 values against normal Fibroblast cells. It is noteworthy to mention that DMSO concentration was constant on all the wells (i.e., (0.5% v/v or 1 μL/200 μL) per well), for the treated and the control ones. IC50 values were calculated using nonlinear regression of the dose–response curves using GraphPad Prism software 7.03.

Aurora-A kinase [2] = molecular target: T1, Aurora-A kinase; experiment: FRET-based Z'-LYTE kinase enzyme inhibition assay; assay type: biochemical; conditions: for inhibition at 10 µM: read-out: % Inhibition at 10 µM; for IC50: nonlinear regression; for Hill Slope: dose-response curve, GraphPad Prism
Procedure: This bioassay was conducted using Z′-LYTE® kinase assay (Invitrogen, Carlsbad, CA, USA) [68, 69]. This biochemical assay depends on fluorescence emission as detection method utilizing a synthetic fluorescence resonance energy transfer (FRET) peptide with two fluorophores: coumarin that work as donor and fluorescein as acceptor [69]. Each hit or compound was dissolved in DMSO to form 10 mM stock solution. Hits were screened at 10 μM concentration. The bioassay was performed in black 384-well plate. For each assay, 100 nL of tested compound stock solution (10 mM) was mixed with 2.4 μL kinase buffer, 5 μL (peptide substrate/Aurora-A Kinase) mixture, and 2.5 μL ATP solution.
The tests were conducted in duplicates.

MDA-MB-231 cells = experiment: MTT cytotoxicity/anti-proliferation assay, MDA-MB-231; assay type: cell-based, human; conditions: Homo sapiens; for IC50: MDA-MB-231, 72 h; for inhibition at 25 µM: MDA-MB-231, 25 µM; for inhibition at 25 µM / inhibition at 50 µM: 72 h; for inhibition at 50 µM: MDA-MB-231, 50 µM
Procedure: as §1, §2, §3

T-47D cells = experiment: MTT cytotoxicity/anti-proliferation assay, T-47D; assay type: cell-based; conditions: Homo sapiens, T47D, 72 h
Procedure: as §1, §2, §3

[3] = ref Pollard and Mortimore, 2009

CCN(CCO)CCCOc1cc2ncnc(Nc3cc(CC(=O)Nc4cccc(F)c4)[nH]n3)c2cc1OC [Compound 17]
Ki (Aurora-A kinase [1]; ref Mortlock, et al., 2007): 190 nM

COc1cc2c(Nc3cc(CC(=O)Nc4cccc(C(F)(F)F)c4)[nH]n3)ncnc2cc1OCCCN1CCC(CO)CC1 [Compound 11]
Ki (Aurora-A kinase [1]; ref Mortlock, et al., 2007): 510 nM

COc1cc2c(Nc3cc(CC(=O)Nc4cccc(Cl)c4)[nH]n3)ncnc2cc1OCCCN1CCC(CO)CC1 [Compound 7]
Ki (Aurora-A kinase [1]; ref Mortlock, et al., 2007): 450 nM

COc1cc2c(Nc3cc(CC(=O)Nc4ccccc4F)[nH]n3)ncnc2cc1OCCCN1CCC(CO)CC1 [Compound 2]
Ki (Aurora-A kinase [1]; ref Mortlock, et al., 2007): 1400 nM

CCC(=O)Nc1ccc(Sc2nc(Nc3cc(C)[nH]n3)cc(C(C)(C)C)n2)cc1 [Compound 54]
Ki (Aurora-A kinase [1]; ref Bebbington, et al., 2009): 10 nM

COc1cc2c(Nc3cc(CC(=O)Nc4cccc(F)c4F)[nH]n3)ncnc2cc1OCCCN1CCC(CO)CC1 [Compound 5]
Ki (Aurora-A kinase [1]; ref Mortlock, et al., 2007): 410 nM

COc1cc2c(Nc3cc(CC(=O)Nc4cccc(F)c4F)[nH]n3)ncnc2cc1OCCCN1CCC(CCO)CC1 [Compound 14]
Ki (Aurora-A kinase [1]; ref Mortlock, et al., 2007): 280 nM

CCC(=O)Nc1ccc(Sc2nc(Nc3cc(C)[nH]n3)cc(N3CCN(C)CC3)n2)cc1 [Compound 60]
Ki (Aurora-A kinase [1]; ref Bebbington, et al., 2009): 1.6 nM

Cc1cc(Nc2nc(-c3ccncc3)nc3ccccc23)n[nH]1 [Compound 29]
Ki (Aurora-A kinase [1]; ref Bebbington, et al., 2009): 81 nM

COc1cc2c(Nc3cc(CC(=O)Nc4cccc(F)c4F)[nH]n3)ncnc2cc1OCCCN(CCO)CC(C)C [Compound 21]
Ki (Aurora-A kinase [1]; ref Mortlock, et al., 2007): 18 nM

COc1cccc(NC(=O)Cc2cc(Nc3ncnc4cc(OCCCN5CCC(CO)CC5)c(OC)cc34)n[nH]2)c1 [Compound 10]
Ki (Aurora-A kinase [1]; ref Mortlock, et al., 2007): 1900 nM

CCC(=O)Nc1ccc(Sc2nc(Nc3cc(C)[nH]n3)cc(N3CCC3)n2)cc1 [Compound 56]
Ki (Aurora-A kinase [1]; ref Bebbington, et al., 2009): 2.4 nM

CCCN(CCO)CCCOc1ccc2c(Nc3cc(CC(=O)Nc4cccc(F)c4F)[nH]n3)ncnc2c1 [Compound 23]
Ki (Aurora-A kinase [1]; ref Mortlock, et al., 2007): 350 nM

COc1cc2c(Nc3cc(CC(=O)Nc4ccc(F)cc4)[nH]n3)ncnc2cc1OCCCN1CCC(CO)CC1 [Compound 4]
Ki (Aurora-A kinase [1]; ref Mortlock, et al., 2007): 2000 nM

CCCN(CCO)CCCOc1ccc2c(Nc3cc(CC(=O)Nc4cccc(F)c4)[nH]n3)ncnc2c1 [Compound 25]
Ki (Aurora-A kinase [1]; ref Mortlock, et al., 2007): 980 nM

CCC(=O)Nc1ccc(Sc2nc(Nc3cc(C)[nH]n3)cc(N3CCOCC3)n2)cc1 [Compound 58]
Ki (Aurora-A kinase [1]; ref Bebbington, et al., 2009): 1.7 nM

Cc1nc(C)c(-c2ccnc(Nc3ccc(N(C)C)cc3)n2)s1 [Compound 65]
Ki (Aurora-A kinase [1]; ref Wang, et al., 2010): 6.9 nM

CCC(=O)Nc1ccc(Sc2nc(Nc3cc(C)[nH]n3)cc(N3CCN(C(C)(C)C)CC3)n2)cc1 [Compound 61]
Ki (Aurora-A kinase [1]; ref Bebbington, et al., 2009): 1.3 nM

CC(=O)Nc1ccc(Sc2nccc(Nc3cc(C)[nH]n3)n2)cc1 [Compound 49]
Ki (Aurora-A kinase [1]; ref Bebbington, et al., 2009): 86 nM

COc1cc2c(Nc3cc(CC(=O)Nc4cccc(C#N)c4)[nH]n3)ncnc2cc1OCCCN1CCC(CO)CC1 [Compound 8]
Ki (Aurora-A kinase [1]; ref Mortlock, et al., 2007): 2600 nM

CCC(=O)Nc1ccc(Sc2nc(Nc3cc(C)[nH]n3)cc(N3CCNCC3)n2)cc1 [Compound 59]
Ki (Aurora-A kinase [1]; ref Bebbington, et al., 2009): 3.7 nM

CCC(=O)Nc1ccc(Sc2nc(Nc3cc(C)[nH]n3)cc(-c3cccnc3)n2)cc1 [Compound 55]
Ki (Aurora-A kinase [1]; ref Bebbington, et al., 2009): 3.9 nM

CC(=O)Nc1ccc(Sc2nc(Nc3cc(C)[nH]n3)c3ccccc3n2)cc1 [Compound 28]
Ki (Aurora-A kinase [1]; [3]): 4 nM

COc1cc2c(Nc3cc(CC(=O)Nc4cccc(F)c4)[nH]n3)ncnc2cc1OCCCN(C)CCO [Compound 16]
Ki (Aurora-A kinase [1]; ref Mortlock, et al., 2007): 65 nM

COc1cc2c(Nc3cc(CC(=O)Nc4cccc(O)c4)[nH]n3)ncnc2cc1OCCCN1CCC(CO)CC1 [Compound 9]
Ki (Aurora-A kinase [1]; ref Mortlock, et al., 2007): 4000 nM

CCCN(CCO)CCCOc1cc2ncnc(Nc3cc(CC(=O)Nc4cccc(F)c4)[nH]n3)c2cc1OC [Compound 18]
Ki (Aurora-A kinase [1]; ref Mortlock, et al., 2007): 220 nM

COc1cc(Nc2nccc(-c3sc(C)nc3C)n2)cc(OC)c1OC [Compound 68]
Ki (Aurora-A kinase [1]; ref Wang, et al., 2010): 0.4 nM

CNc1ccc(Nc2nccc(-c3sc(C)nc3C)n2)cc1 [Compound 66]
Ki (Aurora-A kinase [1]; ref Wang, et al., 2010): 18 nM

Cc1cc(O)c(/N=N/c2ccc(C(=O)O)cc2)cc1C [Hit 88]
IC50 (PANC1 cells): > 50000 nM | inhibition at 25 µM (PANC1 cells): 11.3 ± 0.01% | inhibition at 50 µM (PANC1 cells): 15.1 ± 0.006% | inhibition at 10 µM (Aurora-A kinase [2]; 10 µM, duplicates, Z'-LYTE): 75% | IC50 (Aurora-A kinase [2]; 0.1–100 μM, duplicates, read-out: IC50): 2600 nM and 2610 nM | Hill Slope (Aurora-A kinase [2]): 1.77 | IC50 (MDA-MB-231 cells): > 50000 nM | inhibition at 25 µM (MDA-MB-231 cells): 21.1 ± 0.05% | inhibition at 50 µM (MDA-MB-231 cells): 31.3 ± 0.06% | inhibition at 25 µM (T-47D cells): 26.5 ± 0.01% | inhibition at 50 µM (T-47D cells): 34.9 ± 0.013% | IC50 (T-47D cells): > 50000 nM

CC(=O)Nc1ccc(Sc2nc(Nc3cc(C)[nH]n3)cc(-c3ccccc3)n2)cc1 [Compound 51]
Ki (Aurora-A kinase [1]; ref Bebbington, et al., 2009): 2.4 nM

O=C(O)c1ccc(Nc2ccnc3cc(Cl)ccc23)cc1O [Hit 141]
IC50 (PANC1 cells): > 50000 nM | inhibition at 25 µM (PANC1 cells): 11.4 ± 0.003% | inhibition at 50 µM (PANC1 cells): 15.7 ± 0.02% | inhibition at 10 µM (Aurora-A kinase [2]; 10 µM, duplicates, Z'-LYTE): 51% | IC50 (MDA-MB-231 cells): > 50000 nM | inhibition at 25 µM (MDA-MB-231 cells): 2.9 ± 0.03% | inhibition at 50 µM (MDA-MB-231 cells): 11.1 ± 0.05% | inhibition at 25 µM (T-47D cells): 21.11 ± 0.01% | inhibition at 50 µM (T-47D cells): 25.04 ± 0.02% | IC50 (T-47D cells): > 50000 nM

CCNc1nc(C)c(-c2ccnc(Nc3cc(OC)c(OC)c(OC)c3)n2)s1 [Compound 70]
Ki (Aurora-A kinase [1]; ref Wang, et al., 2010): 3 nM

Cc1cc(Nc2nc(-c3ccccc3)nc3ccccc23)n[nH]1 [Compound 27]
Ki (Aurora-A kinase [1]; [3]): 58 nM

CCCC1N(Cc2ccc(OC)cc2)CCN1Cc1ccc(OC)cc1 [Hit 130]
IC50 (PANC1 cells): > 50000 nM | inhibition at 25 µM (PANC1 cells): 20.3 ± 0.012% | inhibition at 50 µM (PANC1 cells): 34.9 ± 0.017% | IC50 (Aurora-A kinase [2]; IC50, 0.1–100 μM, duplicates): 5890 nM and 5900 nM | Hill Slope (Aurora-A kinase [2]): 7.6 | inhibition at 10 µM (Aurora-A kinase [2]): 86% | IC50 (MDA-MB-231 cells): > 50000 nM | inhibition at 25 µM (MDA-MB-231 cells): 22.9 ± 0.02% | inhibition at 50 µM (MDA-MB-231 cells): 45.5 ± 0.05% | inhibition at 25 µM (T-47D cells): 25.5 ± 0.016% | inhibition at 50 µM (T-47D cells): 31.3 ± 0.008% | IC50 (T-47D cells): > 50000 nM
